The structures appear in SMILES notation.

In the experiment the test system is db/db mice. Nature of the experiment: Evaluation of glucose levels in db/db mice. The note with it: Mus musculus, 168 h; 30 mg/kg daily oral gavage 7 days, male db/db mice; 100% = lean values; read-out: Glucose Normalization %. It is filed as in vivo. How it is done: Five week old male diabetic (db/db) mice [C57BlKs/j-m +/+ Lepr(db), Jackson Laboratory, Bar Harbor, Me.] or lean littermates (db+) were housed 6 per cage (10″×20″×8″ with aspen chip bedding) with food (Purina 5015) and water available at all times. After an acclimation period of 2 weeks, animals were individually identified by ear notches, weighed, and bled via the tail vein for determination of initial glucose levels. Blood was collected (100 μl) from unfasted animals by wrapping each mouse in a towel, cutting the tip of the tail with a scalpel, and milking blood from the tail into a heparinized capillary tube (Fisher) balanced on the edge of the bench. Sample was discharged into a heparinized microtainer with gel separator (VWR) and retained on ice. Plasma was obtained after centrifugation at 4° C. and glucose measured immediately. Remaining plasma was frozen until the completion of the experiment, when glucose and triglycerides were assayed in all samples. Animals were grouped based on initial glucose levels and body weights. Beginning the following morning, mice were dosed daily by oral gavage for 7 days using a 20 gauge, 1½″ curved disposable feeding needle. Treatments were test compounds (30 mg/kg), a positive control agent (30 mg/kg) or vehicle [1% carboxymethylcellulose (w/v)/0.25% Tween80 (w/v); 0.3 ml/mouse]. On day 7, mice were weighed and bled (tail vein) 3 hours after dosing. Twenty-four hours after the 7th dose (i.e., day 8), animals were bled again (tail vein). Samples obtained from conscious animals on days 0, 7 and 8 were assayed for glucose. After the 24 hour bleed, animals were weighed and dosed for the final time. Three hours after dosing on day 8, animals were anesthetized by inhalation of isoflurane and blood obtained via cardiac puncture (0.5-0.7 ml). Whole blood was transferred to serum separator tubes, chilled on ice and permitted to clot. Serum was obtained after centrifugation at 4° C. and frozen until analysis for compound levels. After sacrifice by cervical dislocation, the liver, heart and epididymal fat pads were excised and weighed.
The animals dosed with vehicle had average triglycerides values of 170-230 mg/dl, which were reduced by the positive PPARγ control (70-120 mg/dl with a mean reduction of 50%). Male db/db mice were hyperglycemic (average glucose of 680-730 mg/dl on the 7th day of treatment), while lean animals had average glucose levels between 190-230 mg/dl.
Glucose was measured colorimetrically using commercially purchased reagents (Sigma #315-500). According to the manufacturers, the procedures were modified from published work (McGowan, M. W., Artiss, J. D., Strandbergh, D. R. & Zak, B. Clin Chem, 20:470-5 (1974) and Keston, A. Specific colorimetric enzymatic analytical reagents for glucose. Abstract of papers 129th Meeting ACS, 31C (1956).); and depend on the release of a mole of hydrogen peroxide for each mole of analyte, coupled with a color reaction first described by Trinder (Trinder, P. Determination of glucose in blood using glucose oxidase with an alternative oxygen acceptor. Ann Clin Biochem, 6:24 (1969)). The absorbance of the dye produced is linearly related to the analyte in the sample. The assays were further modified in our laboratory for use in a 96 well format. Standards (Sigma #339-11, Sigma #16-11, and Sigma #CC0534 for glucose triglycerides and total cholesterol, respectively), quality control plasma (Sigma # A2034), and samples (2 or 5 μl/well) were measured in duplicate using 200 μl of reagent. An additional aliquot of sample, pipetted to a third well and diluted in 200 μl water, provided a blank for each specimen. Plates were incubated at room temperature (18, 15, and 10 minutes for glucose, triglycerides and total cholesterol, respectively) on a plate shaker (DPC Micormix 5) and absorbance read at 500 nm (glucose and total cholesterol) or 540 nm (triglycerides) on a plate reader (Wallac Victor 1420). […]
As to `Cc1oc(-c2cccc(Br)c2)nc1CCOc1ccc(OC(C)(C)C(=O)O)cc1` [Example 9A, 2-(4-{2-[2-(3-Bromophenyl)-5-methyloxazol-4-yl]ethoxy}phenoxy)-2-methylpropionic acid], the inhibition in vivo at 30 mg/kg came out at 86%.
Turning to `CCc1ccc(-c2nc(CCOc3ccc(OC(C)(C)C(=O)O)cc3)c(C)o2)cc1` [Example 13, 2-(4-{2-[2-(4-Ethylphenyl)-5-methyloxazol-4-yl]ethoxy}phenoxy)-2-methylpropionic acid], the inhibition in vivo at 30 mg/kg stood at 65%.
The value for `Cc1cc(OCCc2nc(-c3ccccc3)oc2C)ccc1OC(C)(C)C(=O)O` [Example 24, 2-Methyl-2-{2-methyl-4-[2-(5-methyl-2-phenyloxazol-4-yl)ethoxy]phenoxy}propionic acid] was 72%.
For `Cc1oc(-c2ccccc2)nc1CCOc1ccc(OC(C)(C)C(=O)O)cc1` [Example 1, 2-Methyl-2-{4-[2-(5-methyl-2-phenyloxazol-4-yl)ethoxy]phenoxy}propionic acid] the value was 38%; for `CCc1cccc(-c2nc(CCOc3ccc(OC(C)(C)C(=O)O)cc3)c(C)o2)c1` [Example 12, 2-(4-{2-[2-(3-Ethylphenyl)-5-methyloxazol-4-yl]ethoxy}phenoxy)-2-methylpropionic acid], 101%.
As to `Cc1oc(-c2ccccc2)nc1CCOc1ccc(OC(C)(C)C(=O)O)c(Cc2ccccc2)c1` [Example 32, 2-{2-Benzyl-4-[2-(5-methyl-2-phenyloxazol-4-yl)ethoxy]phenoxy}-2-methylpropionic acid], the inhibition in vivo at 30 mg/kg is 47%.
For `Cc1oc(-c2ccccc2)nc1CCOc1ccc(OC(C)(C)C(=O)O)c2c1CCCC2` [Example 38, 2-Methyl-2-{4-[2-(5-methyl-2-phenyl-oxazol-4-yl)-ethoxy]-5,6,7,8-tetrahydro-naphthalen-1-yloxy}-propionic acid], the inhibition in vivo at 30 mg/kg amounted to 38%.
The value for `CCCc1cc(OCCc2nc(-c3ccccc3)oc2C)ccc1OCC(=O)O` [Example 26, {4-[2-(5-methyl-2-phenyl-oxazol-4-yl)ethoxy]-2-propylphenoxy}acetic acid] was 42%; that for `Cc1oc(-c2ccccc2)nc1CCOc1ccc(OC(C)(C)C(=O)O)c(CC(C)C)c1` [Example 30C, 2-{2-Isobutyl-4-[2-(5-methyl-2-phenyloxazol-4-yl)ethoxy]phenoxy}-2-methylpropionic acid] was 48%; that for `Cc1oc(-c2ccccc2)nc1CCOc1ccc(OC(C)(C)C(=O)O)c(CCc2ccccc2)c1` [Example 30J, 2-Methyl-2-{4-[2-(5-methyl-2-phenyloxazol-4-yl)ethoxy]-2-phenethylphenoxy}propionic acid] was 58%.
The value for `CCCc1cc(OCCc2nc(-c3ccccc3)oc2C)ccc1OC(C)(C)C(=O)O` [Example 26A, 2-Methyl-2-{4-[2-(5-methyl-2-phenyloxazol-4-yl)ethoxy]-2-propylphenoxy}propionic acid] was 77%.
For `Cc1oc(-c2ccccc2)nc1CCOc1ccc(OC(C)(C)C(=O)O)c2ccccc12` [Example 37, 2-Methyl-2-{4-[2-(5-methyl-2-phenyl-oxazol-4-yl)-ethoxy]-naphthalen-1-yloxy}-propionic acid] the value was 56%; for `Cc1oc(-c2ccc(OC3CCCCC3)cc2)nc1CCOc1ccc(OC(C)(C)C(=O)O)cc1` [Example 21, 2-(4-{2-[2-(4-Cyclohexyloxy-phenyl)-5-methyl-oxazol-4-yl]-ethoxy}-phenoxy)-2-methyl-propionic acid], 23%.
For `CCCCc1cc(OC(C)(C)C(=O)O)ccc1OCCc1nc(-c2ccccc2)oc1C` [Example 31F, 2-{3-Butyl-4-[2-(5-methyl-2-phenyloxazol-4-yl)ethoxy]phenoxy}-2-methylpropionic acid], the inhibition in vivo at 30 mg/kg amounted to 77%.
Turning to `Cc1oc(-c2cccc(CCc3ccccc3)c2)nc1CCOc1ccc(OC(C)(C)C(=O)O)cc1` [Example 12A, 2-Methyl-2-(4-{2-[5-methyl-2-(3-phenethylphenyl)oxazol-4-yl]ethoxy}phenoxy)-propionic acid], the inhibition in vivo at 30 mg/kg was determined as 51%.
The value for `CCCc1cc(OC(C)(C)C(=O)O)ccc1OCCc1nc(-c2ccccc2)oc1C` [Example 27A, 2-Methyl-2-{4-[2-(5-methyl-2-phenyloxazol-4-yl)ethoxy]-3-propylphenoxy}propionic acid] was 62%; that for `CCc1cc(OCCc2nc(-c3ccccc3)oc2C)ccc1OC(C)(C)C(=O)O` [Example 30A, 2-{2-Ethyl-4-[2-(5-methyl-2-phenyloxazol-4-yl)ethoxy]phenoxy}2-methylpropionic acid] was 76%.
